PubChem BioAssay AID206 (DTP/NCI, 2004)
Several values for one entry are separate records, joined by “and”; a condition that tells them apart may be missing. Equal values may be shown once. Inconclusive results are not listed.

System: nude mice, HT29 intrarenal xenograft, tumor weight T/C
Test: NCI In Vivo Anticancer Drug Screen. Data for tumor model HT29;CX-1 Human Adenocarcinoma (MER+) (intrarenal inoculation) in NU/NU Swiss (nude) mice
Details: endpoint: mean tumor weight change, higher = larger tumour
Method: The antitumor activity of compounds was measured in mice bearing transplantable tumors. Survival or tumor size were measured and the results are expressed as the measurement made in the treated group (T) divided by the measurement made in the vehicle treated control group (C). The tumor model used in this assay is HT29;CX-1 Human Adenocarcinoma (MER+) (intrarenal inoculation) in NU/NU Swiss (nude) mice

[1] = dose: 150.0 mg/kg/injection, schedule: Q04DX004 (sc), vehicle: saline with Tween-80
[2] = dose: 300.0 mg/kg/injection, schedule: Q04DX004 (sc), vehicle: saline with Tween-80
[3] = dose: 600.0 mg/kg/injection, schedule: Q04DX004 (sc), vehicle: saline with Tween-80
[4] = dose: 300.0 mg/kg/injection, schedule: Q04DX004 (sc), vehicle: suspension in saline
[5] = dose: 1200.0 mg/kg/injection, schedule: Q04DX004 (sc), vehicle: suspension in saline
[6] = dose: 1200.0 mg/kg/injection, schedule: Q04DX004 (sc), vehicle: saline with Tween-80
[7] = dose: 10.0 mg/kg/injection, schedule: Q04DX004 (sc), vehicle: water
[8] = dose: 1600.0 mg/kg/injection, schedule: Q04DX004 (sc), vehicle: saline with Tween-80
[9] = dose: 2400.0 mg/kg/injection, schedule: Q04DX004 (sc), vehicle: saline with Tween-80

O=C1c2ccccc2C(=O)c2c3c(cc(NCCNCCO)c21)N(CCO)CCN3
T/C (dose: 100.0 mg/kg/injection, schedule: Q04DX004 (sc), vehicle: DMSO): 168 % of control | T/C (dose: 200.0 mg/kg/injection, schedule: Q04DX004 (sc), vehicle: DMSO): 112 % of control | T/C (dose: 400.0 mg/kg/injection, schedule: Q04DX004 (sc), vehicle: DMSO): 59 % of control | T/C (dose: 800.0 mg/kg/injection, schedule: Q04DX004 (sc), vehicle: DMSO): 104 % of control

COc1c(O)c2c(c3cc(C(=O)N4CCc5c4c(O)c(OC)c4[nH]c(C(=O)N6CC7CC78C6=CC(=O)c6[nH]cc(C)c68)cc54)[nH]c13)CCN2C(N)=O (stereo not drawn)
T/C (dose: 6.25 micrograms/kg/injection, schedule: Q01DX010 (sc), vehicle: DMSO): 96 % of control | T/C (dose: 12.5 micrograms/kg/injection, schedule: Q01DX010 (sc), vehicle: DMSO): 108 % of control | T/C (dose: 25.0 micrograms/kg/injection, schedule: Q01DX010 (sc), vehicle: DMSO): 65 % of control | T/C (dose: 50.0 micrograms/kg/injection, schedule: Q01DX010 (sc), vehicle: DMSO): 89 % of control

C1CNCOC1
T/C (dose: 75.0 mg/kg/injection, schedule: Q04DX004 (sc), vehicle: saline): 123 % of control | T/C (dose: 150.0 mg/kg/injection, schedule: Q04DX004 (sc), vehicle: saline): 158 % of control | T/C (dose: 300.0 mg/kg/injection, schedule: Q04DX004 (sc), vehicle: saline): 91 % of control | T/C (dose: 600.0 mg/kg/injection, schedule: Q04DX004 (sc), vehicle: saline): 75 % of control

CC1(C)OC2C(COC(=O)c3ccc([N+](=O)[O-])cc3)OC(NC(=O)N(CCCl)N=O)C2O1 (stereo not drawn)
T/C [1]: 38 % of control | T/C [2]: 26 % of control | T/C [3]: 70 % of control

Nc1ncn(C2OC(CO)C(O)C2O)c(=O)n1 (stereo not drawn)
T/C (dose: 0.19 mg/kg/injection, schedule: Q01DX010 (sc), vehicle: saline): 212 % of control | T/C (dose: 0.38 mg/kg/injection, schedule: Q01DX010 (sc), vehicle: saline): 172 % of control | T/C (dose: 0.75 mg/kg/injection, schedule: Q01DX010 (sc), vehicle: saline): 96 % of control | T/C (dose: 5.0 mg/kg/injection, schedule: Q04DX004 (sc), vehicle: saline): 66 % of control | T/C (dose: 10.0 mg/kg/injection, schedule: Q04DX004 (sc), vehicle: saline): 48 % of control and 49 % of control | T/C (dose: 100.0 mg/kg/injection, schedule: Q04DX004 (sc), vehicle: saline): 62 % of control | T/C (dose: 200.0 mg/kg/injection, schedule: Q04DX004 (sc), vehicle: saline): 85 % of control | T/C (dose: 200.0 mg/kg/injection, schedule: Q04DX004 (sc), vehicle: suspension in saline): 98 % of control | T/C [4]: 24 % of control | T/C (dose: 400.0 mg/kg/injection, schedule: Q04DX004 (sc), vehicle: saline): 38 % of control | T/C (dose: 600.0 mg/kg/injection, schedule: Q04DX004 (sc), vehicle: suspension in saline): 79 % of control | T/C (dose: 800.0 mg/kg/injection, schedule: Q04DX004 (sc), vehicle: saline): 7 % of control | T/C (dose: 800.0 mg/kg/injection, schedule: Q04DX004 (sc), vehicle: suspension in saline): 29 % of control and 30 % of control | T/C [5]: 7 % of control | T/C (dose: 1600.0 mg/kg/injection, schedule: Q04DX004 (sc), vehicle: suspension in saline): 11 % of control

COc1cc(C(=O)N/N=C/c2cccc([N+](=O)[O-])c2)cc(OC)c1OC
T/C [1]: 91 % of control | T/C [3]: 70 % of control | T/C [6]: 120 % of control

COc1cc2cc[n+](C)c(Cc3ccccc3)c2cc1OC
T/C (dose: 18.75 mg/kg/injection, schedule: Q04DX004 (sc), vehicle: Klucel (hydroxypropylcellulose) (HPC)): 73 % of control | T/C (dose: 37.5 mg/kg/injection, schedule: Q04DX004 (sc), vehicle: Klucel (hydroxypropylcellulose) (HPC)): 108 % of control | T/C (dose: 75.0 mg/kg/injection, schedule: Q04DX004 (sc), vehicle: Klucel (hydroxypropylcellulose) (HPC)): 54 % of control

C=C(C)[C@]12CC(C)C34OC(/C=C\C=C\CCCCCCCCC)(O[C@@H]1[C@@H]3[C@@H]1O[C@]1(CO)[C@@H](O)[C@]1(O)C(=O)C(C)=C[C@@H]41)O2 (stereo partly drawn)
T/C (dose: 0.38 mg/kg/injection, schedule: Q04DX004 (sc), vehicle: distilled water + alcohol): 73 % of control | T/C (dose: 0.75 mg/kg/injection, schedule: Q04DX004 (sc), vehicle: distilled water + alcohol): 40 % of control | T/C (dose: 1.5 mg/kg/injection, schedule: Q04DX004 (sc), vehicle: distilled water + alcohol): 63 % of control | T/C (dose: 3.0 mg/kg/injection, schedule: Q04DX004 (sc), vehicle: distilled water + alcohol): 37 % of control

O=C(O)C1CC(c2ccccc2)=NN1c1ccccc1 (stereo not drawn)
T/C (dose: 75.0 mg/kg/injection, schedule: Q04DX004 (sc), vehicle: water): 76 % of control | T/C (dose: 150.0 mg/kg/injection, schedule: Q04DX004 (sc), vehicle: water): 79 % of control | T/C (dose: 300.0 mg/kg/injection, schedule: Q04DX004 (sc), vehicle: water): 74 % of control

COC1C(CO)OC(n2cnc3c(=S)nc(N)[nH]c32)C1O (stereo not drawn)
T/C (dose: 150.0 mg/kg/injection, schedule: Q04DX004 (sc), vehicle: Klucel (hydroxypropylcellulose) (HPC)): 116 % of control

COc1cccc2c1C(=O)c1c(O)c3c(c(O)c1C2=O)C[C@@](O)(/C(C)=N/NC(=O)c1ccc(Cl)cc1)C[C@@H]3OC1CC(N)C(O)C(C)O1 (stereo partly drawn)
T/C [7]: 88 % of control | T/C (dose: 20.0 mg/kg/injection, schedule: Q04DX004 (sc), vehicle: water): 39 % of control | T/C (dose: 80.0 mg/kg/injection, schedule: Q04DX004 (sc), vehicle: water): 25 % of control

N=c1nc2n(cc1F)[C@@H]1O[C@H](CO)[C@@H](O)[C@@H]1O2
T/C [4]: 61 % of control | T/C [5]: 60 % of control

COc1cccc2c1C(=N)c1c(O)c3c(c(O)c1C2=O)C[C@@](O)(C(C)=O)C[C@@H]3OC1CC(N)C(O)C(C)O1 (stereo partly drawn)
T/C [7]: 102 % of control | T/C (dose: 40.0 mg/kg/injection, schedule: Q04DX004 (sc), vehicle: water): 53 % of control

N=C(N)Sc1ccccn1
T/C (dose: 50.0 mg/kg/injection, schedule: Q01DX010 (sc), vehicle: saline): 89 % of control | T/C (dose: 100.0 mg/kg/injection, schedule: Q01DX010 (sc), vehicle: saline): 100 % of control | T/C (dose: 200.0 mg/kg/injection, schedule: Q01DX010 (sc), vehicle: saline): 41 % of control | T/C (dose: 400.0 mg/kg/injection, schedule: Q01DX010 (sc), vehicle: saline): 74 % of control

O=C(O)C1Cc2nc[nH]c2CN1CO (stereo not drawn)
T/C (dose: 100.0 mg/kg/injection, schedule: Q04DX004 (sc), vehicle: saline with Tween-80): 90 % of control | T/C [8]: 108 % of control

CCC(CC)COC(=O)c1ccccc1C(=O)OCC(CC)CC
T/C [2]: 94 % of control | T/C [3]: 53 % of control | T/C [6]: 81 % of control | T/C [9]: 71 % of control

COC1C(O)CC(OC2CC(Oc3cc4cc5c(c(O)c4c(O)c3C)C(=O)[C@@H](OC3CC(OC4CC(OC6CC(C)(O)C(OC(C)=O)C(C)O6)C(O)C(C)O4)C(O)C(C)O3)[C@H]([C@H](OC)C(=O)[C@@H](O)[C@@H](C)O)C5)OC(C)C2OC(C)=O)OC1C (stereo partly drawn)
T/C (dose: 0.19 mg/kg/injection, schedule: Q04DX004 (sc), vehicle: Klucel (hydroxypropylcellulose) (HPC)): 103 % of control | T/C (dose: 0.3 mg/kg/injection, schedule: Q04DX004 (sc), vehicle: Klucel (hydroxypropylcellulose) (HPC)): 39 % of control | T/C (dose: 0.38 mg/kg/injection, schedule: Q04DX004 (sc), vehicle: Klucel (hydroxypropylcellulose) (HPC)): 85 % of control | T/C (dose: 0.75 mg/kg/injection, schedule: Q04DX004 (sc), vehicle: Klucel (hydroxypropylcellulose) (HPC)): 89 % of control | T/C (dose: 1.2 mg/kg/injection, schedule: Q04DX004 (sc), vehicle: Klucel (hydroxypropylcellulose) (HPC)): 46 % of control | T/C (dose: 1.5 mg/kg/injection, schedule: Q04DX004 (sc), vehicle: Klucel (hydroxypropylcellulose) (HPC)): 21 % of control

O=c1nc(Oc2ccccc2)nc2ncccn12
T/C (dose: 50.0 mg/kg/injection, schedule: Q01DX010 (sc), vehicle: saline with Tween-80): 312 % of control | T/C (dose: 100.0 mg/kg/injection, schedule: Q01DX010 (sc), vehicle: saline with Tween-80): 156 % of control

CCCCCCOC(CN(C)C)C(Cl)(Cl)Cl (stereo not drawn)
T/C (dose: 400.0 mg/kg/injection, schedule: Q04DX004 (sc), vehicle: saline with Tween-80): 91 % of control | T/C (dose: 800.0 mg/kg/injection, schedule: Q04DX004 (sc), vehicle: saline with Tween-80): 57 % of control | T/C [8]: 81 % of control | T/C [9]: 67 % of control
